How the values were obtained:
[1] = xn = mol fraction of the nth substance listed; settings: 101 kPa, Liquid
[2] = refractive index (Na D-line) (dimensionless); xn = mol fraction of the nth substance listed; settings: 101 kPa, Liquid

CCCCCCCC[n+]1ccn(C)c1.F[P-](F)(F)(F)(F)F [1-octyl-3-methylimidazolium hexafluorophosphate] + CCC(C)=O
Settings	mass density, 293.15 K [kg/m3]	mass density, 298.15 K [kg/m3]	mass density, 303.15 K [kg/m3]	refractive index, 293.15 K	refractive index, 298.15 K	refractive index, 303.15 K	speed of sound, 293.15 K [m/s]	speed of sound, 298.15 K [m/s]	speed of sound, 303.15 K [m/s]
[1], x1 = 0.0475	869.8	864.3	859.6	–	–	–	1243	1224	1195
[1], x1 = 0.0972	923.7	918.9	914.1	–	–	–	1268	1249	1229
[1], x1 = 0.1918	1002	997.6	993.2	–	–	–	1303	1286	1269
[1], x1 = 0.2947	1063.1	1058.8	1054.6	–	–	–	1331	1315	1300
[1], x1 = 0.3949	1107.9	1103.7	1099.5	–	–	–	1352	1337	1323
[1], x1 = 0.4983	1143.6	1139.4	1135.3	–	–	–	1368	1354	1340
[1], x1 = 0.5752	1164.9	1160.9	1156.9	–	–	–	1378	1364	1351
[1], x1 = 0.6815	1189.5	1185.5	1181.5	–	–	–	1389	1376	1363
[1], x1 = 0.7683	1205.8	1202	1198.3	–	–	–	1399	1386	1372
[1], x1 = 0.8315	1216.4	1212.8	1209.1	–	–	–	1406	1392	1379
[1], x1 = 0.9315	1230.9	1227.5	1223.9	–	–	–	1425	1410	1395
[1], x1 = 1	1239.6	1235.7	1231.9	–	–	–	1424	1408	1393
[2], x1 = 0.0475	–	–	–	1.38881	1.38663	1.38505	–	–	–
[2], x1 = 0.0972	–	–	–	1.39567	1.39445	1.39284	–	–	–
[2], x1 = 0.1918	–	–	–	1.40468	1.40289	1.40124	–	–	–
[2], x1 = 0.2947	–	–	–	1.41058	1.40877	1.40709	–	–	–
[2], x1 = 0.3949	–	–	–	1.41468	1.41302	1.41133	–	–	–
[2], x1 = 0.4983	–	–	–	1.41774	1.41614	1.41466	–	–	–
[2], x1 = 0.5752	–	–	–	1.41934	1.41779	1.41645	–	–	–
[2], x1 = 0.6815	–	–	–	1.42126	1.41979	1.41825	–	–	–
[2], x1 = 0.7683	–	–	–	1.42239	1.42095	1.41949	–	–	–
[2], x1 = 0.8315	–	–	–	1.42355	1.42198	1.42051	–	–	–
[2], x1 = 0.9315	–	–	–	1.42474	1.42337	1.42199	–	–	–
[2], x1 = 1	–	–	–	1.4244	1.42302	1.42165	–	–	–

CCC(C)=O [butanone] + CCCCCCCC[n+]1ccn(C)c1.F[P-](F)(F)(F)(F)F
x2 = 0
Settings	mass density, 293.15 K [kg/m3]	mass density, 298.15 K [kg/m3]	mass density, 303.15 K [kg/m3]	refractive index, 293.15 K	refractive index, 298.15 K	refractive index, 303.15 K	speed of sound, 293.15 K [m/s]	speed of sound, 298.15 K [m/s]	speed of sound, 303.15 K [m/s]
[1]	805.6	799.7	794.9	–	–	–	1212	1192	1163
[2]	–	–	–	1.37879	1.37618	1.37355	–	–	–

C1CCCCC1 [cyclohexane] + CCC(C)=O
x1 = 1
Settings	refractive index, 293.15 K	refractive index, 298.15 K	refractive index, 303.15 K	speed of sound, 293.15 K [m/s]	speed of sound, 298.15 K [m/s]	speed of sound, 303.15 K [m/s]
[1], Sing-around technique in a fixed-path interferometer	–	–	–	1279	1256	1219
[2], Standard Abbe refractometry	1.42633	1.42354	1.42073	–	–	–

[1], x1 = 1
Settings	mass density [kg/m3]
293.15 K	778.4
298.15 K	773.8
303.15 K	769
